Patent US11109593B2, “Isoxazolin-5-one derivative and herbicide containing same as active ingredient” (HOKKO CHEMICAL INDUSTRY CO., LTD., priority 2017, dated 2021)

What was measured:
Assay type in all cases: in vivo
Scirpus juncoides [1] = assay: Test Example 1: herbicidal effect test by treatment of rice paddy soil (immediately after seeding)
Method in brief: (§1)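 Puddled, fertilized (N:P:K=17:17:17) paddy soil in Wagner pots; seeds sown 0–1 cm deep, flooded to about 3 cm. Emulsifiable formulations diluted in water and dropped into the water immediately after seeding at 120 g active ingredient per 10 ares; greenhouse. Herbicidal rate from dry weight vs untreated at 14 days.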

Echinochloa crus-galli [2] = assay: as above
Method in brief: as §1

[3] = system: broad leaf weeds (Lindernia pyxidaria and Monochoria vaginalis); assay: as above
Method in brief: as §1

Echinochloa crus-galli [4] = assay: Test Example 4: herbicidal effect test by treatment of leave and stem in dry field farming (seven days after seeding); details: 120 g/10a active ingredient; emulsion sprayed seven days after seeding; evaluated 14 days after treatment
Protocol: (§2) This test was conducted in a double system per one agent solution concentration area, and the herbicidal rates (%) were determined by the following equation (Math. 1) on 14 days after the treatment with the agents. Herbicidal Rate (%)={1-(Average Dry Weight (g) of Plant of Treated Area)/(Average Dry Weight (g) of Plant of Untreated Area)}×100 [Math. 1]
(§3) Herbicidal Effect Test by Treatment of Leave and Stem in Dry Field Farming
(§4) Pots with a size of 36 cm^2 were filled with a dry field farming soil (alluvium). The soil of the top layer of 1 cm and seeds of weeds, namely southern crabgrass, Echinochloa crus-galli, Chenopodium album and Amaranthus viridis, 20 seeds each, were evenly mixed, and the top layer was gently pressed. Emulsions prepared using the compounds in Table 6 below according to Formulation Example 5 were diluted with water seven days after seeding, and the water-diluted agent solutions were sprayed to the soil surfaces at a ratio of 100 liters per 10 ares. The converted amount of the applied active ingredient corresponded to 120 g per 10 ares. The herbicidal effects were evaluated by the same standard as that in Test Example 1 on 14 days after the treatment with the agents. […] The compound numbers in Table 6 are the same as those in Table 1 and Table 2 above.

southern crabgrass [5] = assay: as above; details: 120 g/10a active ingredient; emulsion sprayed seven days after seeding; evaluated 14 days after treatment
Protocol: as §2, §3, §4

Amaranthus viridis [6] = assay: as above; details: 120 g/10a active ingredient; emulsion sprayed seven days after seeding; evaluated 14 days after treatment
Protocol: as §2, §3, §4

Chenopodium album [7] = assay: as above; details: 120 g/10a active ingredient; emulsion sprayed seven days after seeding; evaluated 14 days after treatment
Protocol: as §2, §3, §4

Scirpus juncoides [8] = assay: Test Example 2: herbicidal effect test by treatment during growing period in paddy rice cultivation (seven days after seeding); details: 120 g/10a active ingredient, assessed 14 days after treatment, dry weight vs untreated area
Method in brief: (§5)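 Seeds sown 0–1 cm deep in puddled, fertilised paddy soil with about 3 cm standing water in a glass greenhouse. Diluted emulsion dropped into the water seven days after seeding at 120 g active ingredient per 10 ares. Herbicidal rate (%) from mean dry weight vs untreated, duplicate, 14 days after treatment.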

Echinochloa crus-galli [9] = assay: as above; details: 120 g/10a active ingredient, assessed 14 days after treatment, dry weight vs untreated area
Method in brief: as §5

[10] = system: broad leaf weeds (Lindernia pyxidaria and Monochoria vaginalis); assay: as above; details: 120 g/10a active ingredient, assessed 14 days after treatment, dry weight vs untreated area
Method in brief: as §5

Echinochloa crus-galli [11] = assay: Test Example 3: herbicidal effect test by treatment of dry field farming soil (one day after seeding); details: 120 g/10a active ingredient, evaluated 14 days after treatment
Protocol: as §2
(§6) Herbicidal Effect Test by Treatment of Dry Field Farming Soil
as §4, with “Table 5” for “Table 6”, “water one day” for “water seven days”

southern crabgrass [12] = assay: as above; details: 120 g/10a active ingredient, evaluated 14 days after treatment
Protocol: as §2, §6
as §4, with “Table 5” for “Table 6”, “water one day” for “water seven days”

Amaranthus viridis [13] = assay: as above; details: 120 g/10a active ingredient, evaluated 14 days after treatment
Protocol: as §2, §6
as §4, with “Table 5” for “Table 6”, “water one day” for “water seven days”

Chenopodium album [14] = assay: as above; details: 120 g/10a active ingredient, evaluated 14 days after treatment
Protocol: as §2, §6
as §4, with “Table 5” for “Table 6”, “water one day” for “water seven days”

[15] = 120 g/10a active ingredient, dry weight vs untreated area, 14 days after treatment
[16] = Lindernia pyxidaria, 120 g/10a active ingredient, dry weight vs untreated area, 14 days after treatment
[17] = Monochoria vaginalis, 120 g/10a active ingredient, dry weight vs untreated area, 14 days after treatment
[18] = 120 g/10a active ingredient, 14 days after treatment, dry weight vs untreated area

Structure (SMILES) | Herbicidal rate (%) Scirpus juncoides (Scirpus juncoides [1]; [15]) | Herbicidal rate (%) Echinochloa crus-galli (Echinochloa crus-galli [2]; [15]) | Herbicidal rate (%) Lindernia pyxidaria [3, 16] | Herbicidal rate (%) Monochoria vaginalis [3, 17] | herbicidal effect (herbicidal rate), Echinochloa crus-galli (Echinochloa crus-galli [4]) | herbicidal effect (herbicidal rate), southern crabgrass (southern crabgrass [5]) | herbicidal effect (herbicidal rate), Amaranthus viridis (Amaranthus viridis [6]) | herbicidal effect (herbicidal rate), Chenopodium album (Chenopodium album [7]) | Herbicidal rate (%) Scirpus juncoides (Scirpus juncoides [8]) | Herbicidal rate (%) Echinochloa crus-galli (Echinochloa crus-galli [9]) | Herbicidal rate (%) Lindernia pyxidaria [10] | Herbicidal rate (%) Monochoria vaginalis [10] | Herbicidal rate (%) Scirpus juncoides (Scirpus juncoides [1]; [18]) | Herbicidal rate (%) Echinochloa crus-galli (Echinochloa crus-galli [2]; [18]) | Herbicidal rate (%) Lindernia pyxidaria ([3]; Lindernia pyxidaria, 120 g/10a active ingredient, 14 days after treatment, dry weight vs untreated area) | Herbicidal rate (%) Monochoria vaginalis ([3]; Monochoria vaginalis, 120 g/10a active ingredient, 14 days after treatment, dry weight vs untreated area) | herbicidal rate, Echinochloa crus-galli (Echinochloa crus-galli [11]) | herbicidal rate, southern crabgrass (southern crabgrass [12]) | herbicidal rate, Amaranthus viridis (Amaranthus viridis [13]) | herbicidal rate, Chenopodium album (Chenopodium album [14])
Cc1c(Cc2ccccc2NS(=O)(=O)C(F)(F)F)c(=O)on1CC(F)(F)F [Compound 1-134] | 80% | 80% | 60% | 80% | 90% | 60% | 50% | 40% | 80% | 80% | 40% | 80% | – | – | – | – | – | – | – | –
CSCCCn1oc(=O)c(Cc2ccccc2N(S(=O)(=O)C(F)(F)F)S(=O)(=O)C(F)(F)F)c1C [Compound 1-1003] | 90% | 100% | 90% | 90% | 60% | 40% | 40% | 0% | 90% | 100% | 70% | 70% | – | – | – | – | – | – | – | –
CSCCn1oc(=O)c(Cc2ccccc2NS(=O)(=O)C(F)(F)F)c1C [Compound 1-162] | 100% | 100% | 100% | 100% | 90% | 60% | 50% | 60% | 80% | 90% | 70% | 80% | – | – | – | – | – | – | – | –
CCCOC(=O)N(c1ccccc1Cc1c(C)n(C(C)CC)oc1=O)S(=O)(=O)C(F)(F)F (stereo not drawn) [Compound 1-632] | 90% | 90% | 90% | 90% | 90% | 90% | 40% | 40% | 90% | 90% | 90% | 90% | – | – | – | – | – | – | – | –
Cc1ccc(Cn2oc(=O)c(Cc3ccccc3NS(=O)(=O)C(F)(F)F)c2C)cc1 [Compound 1-191] | 90% | 90% | 100% | 90% | 90% | 40% | 80% | 40% | 90% | 90% | 80% | 80% | – | – | – | – | – | – | – | –
CCCCCC(c1ccccc1)n1oc(=O)c(Cc2ccccc2N(S(=O)(=O)C(F)(F)F)S(=O)(=O)C(F)(F)F)c1C (stereo not drawn) [Compound 1-1042] | 90% | 90% | 90% | 80% | 0% | 50% | 40% | 40% | 70% | 60% | 60% | 60% | – | – | – | – | – | – | – | –
Cc1c(Cc2ccccc2N(S(=O)(=O)C(F)(F)F)S(=O)(=O)C(F)(F)F)c(=O)on1C1CCc2ccccc21 (stereo not drawn) [Compound 1-1049] | – | – | – | – | – | – | – | – | 70% | 80% | 60% | 70% | 90% | 90% | 90% | 80% | 90% | 80% | 50% | 50%
CCC(C)Cn1oc(=O)c(Cc2ccccc2N(S(=O)(=O)C(F)(F)F)S(=O)(=O)C(F)(F)F)c1C (stereo not drawn) [Compound 1-972] | 100% | 100% | 100% | 100% | – | – | – | – | 90% | 100% | 80% | 100% | – | – | – | – | 90% | 90% | 100% | 100%
Cc1c(Cc2ccccc2N(C(=O)OCC(C)C)S(=O)(=O)C(F)(F)F)c(=O)on1C(C)C [Compound 1-667] | 90% | 90% | 90% | 90% | – | – | – | – | 90% | 90% | 90% | 90% | – | – | – | – | 90% | 80% | 80% | 90%
CC(C)n1oc(=O)c(Cc2ccccc2NS(=O)(=O)C(F)(F)F)c1C1CC1 [Compound 1-83] | 90% | 90% | 100% | 70% | – | – | – | – | 60% | 40% | 40% | 40% | – | – | – | – | 50% | 40% | 40% | 40%
CCCCn1oc(=O)c(Cc2ccccc2N(S(=O)(=O)C(F)(F)F)S(=O)(=O)C(F)(F)F)c1C [Compound 1-969] | 90% | 100% | 100% | 80% | – | – | – | – | 90% | 100% | 60% | 90% | – | – | – | – | 90% | 80% | 40% | 40%
